Entries after “also recorded” stand apart in the source; their conditions may differ. Marks after values point to notes of the source that are not given here.
Assays:
C. acetobutylicum [1] = test: Calculated optimum peptide treatment level (polynomial curve fitted to butanol concentration vs treatment level per culture transfer); assay type: cell-based, Clostridium acetobutylicum; details: for Calculated optimum peptide treatment level: first experiment using BP110517
Text: FIG. 20. Calculation of optimum peptide treatment level for transfer 13 of the first experiment that tested peptide BP110517 (SEQ ID NO:143) (see Table 1 for data). The four butanol concentration data points were graphed against the treatment levels and a polynomial curve was fitted to the graph.
The data from the sequential batch culture experiments treated with peptides BP110517 and BP1106213 were used to calculate optimum peptide treatment levels for enhanced butanol production by C. acetobutylicum. The calculation was made for each culture transfer using the butanol concentration results from control and experimental wells. The four data points for each culture transfer were graphed against the treatment levels, and a polynomial curve was fitted to the graph.
Then, the first derivative of the polynomial fitted to the data for each culture transfer was solved for “x”, which was the maximum point of the fitted polynomial curve (Table 46). The resulting peptide concentration value was assumed to be close to an optimum peptide treatment level that would result in enhanced butanol production.

C. acetobutylicum [2] = test: Time course study of replicate 250 mL batch cultures (growth, butanol, residual glucose, yield, productivity); assay type: cell-based, Clostridium acetobutylicum; details: for Residual glucose / Butanol yield from glucose / Butanol productivity: 50 nM peptide; for Residual glucose: initial glucose 60 g/L, average ± SD of triplicate; for Butanol yield from glucose: starting glucose 60 g/L; for Butanol concentration: Treated, average and standard deviation of triplicate samples
Procedure: Subsequently, time-course studies were conducted using the optimum peptide treatment level that was determined by the sequential batch transfer experiments. Untreated and peptide-treated cultures were grown in triplicate 250 mL batches that were inoculated with […] of the ninth sequential transfer from 24-well culture plates. The 1/1000 ratio of inoculum to culture volume was the same as that used throughout the prior sequential batch transfer experiments, and the replicate time course batch cultures corresponded to the 10th sequential batch transfer. Samples were recovered from the triplicate control and experimental batches a regular time intervals up to 96 hours of culture. Optical density of the replicates was measured and culture supernatants were recovered following centrifugation and analyzed later for butanol and residual glucose concentrations. The analyses were used to calculate yield and productivity of the cultures.
Clostridium acetobutylicum strain ATCC 824 was used in all experiments and the growth medium used for sequential batch transfer, time course, and continuous culture experiments contained yeast extract, casamino acids, L-cysteine, L-asparagine, phosphate buffer, trace minerals, and 6% glucose. What are believed to be quorum-sensing peptides that were used in the experiments were chemically synthesized peptides SEQ ID NO: 143 (amino acid sequence: SYPGWSW) and SEQ ID NO: 144 (amino acid sequence: ILILISG). Routine growth of the bacteria as well as the sequential batch and time course experiments were conducted in a Form a Scientific Model 1029 anaerobic gas chamber at 32° C. Continuous cultures were performed at 32° C. using duplicate New Brunswick Scientific BioFlo 3000 apparati with a dilution rate of 0.01 volume per hour, 75 rpm agitation, and nitrogen gas sparging. Optical density of culture samples was measured at 600 nm in a Beckman DU 600 series spectrophotometer and glucose was analyzed using a YSI Model 2700 Select Biochemistry Analyzer with internal glucose calibration. Butanol concentrations were determined by measuring experimental and standard samples using a Varian Saturn 3 Gas Chromatograph/Mass Spectrometer and calculating butanol concentrations using standard curves.
The study was started by inoculating triplicate 250 mL batches of untreated and peptide-treated medium with 250 μL of the corresponding ninth sequential transfer from 24-well culture plates. Therefore, the replicate time course batch cultures corresponded to the 10th sequential batch transfer. Samples were recovered from the triplicate control and experimental batches at regular time intervals up to 96 hours of culture for measurement of optical density at 600 nm and analysis of butanol and residual glucose concentrations.
Like the previous time course experiment, this study was started by inoculating triplicate 250 mL batches of untreated and peptide-treated medium with 250 μL of the corresponding ninth sequential transfer from 24-well culture plates. As before, samples were recovered from the triplicate control and experimental batches at regular time intervals up to 96 hours of culture for measurement of optical density and analysis of butanol and residual glucose concentrations.

Substance: SYPGWSW [peptide SEQ ID NO: 143]
- Calculated Optimum Peptide Level, Average (C. acetobutylicum [1]; average over culture transfers, Expt. 1): 48.5 ± 9.9 nM
- Calculated Optimum Peptide Level, Average (C. acetobutylicum [1]; average over culture transfers, Expt. 2): 43.9 ± 31.6 nM
- Average optimum peptide treatment level (C. acetobutylicum [1]; average over culture transfers, both experiments for BP110517, single non-inhibitory experiment for BP1106213, fairly large standard deviations): mid to high 40
- Calculated optimum peptide treatment level (C. acetobutylicum [1]; transfer 4): 38.7 nM
- Calculated optimum peptide treatment level (C. acetobutylicum [1]; transfer 22): 62.9 nM
- Calculated Optimum Peptide Level (C. acetobutylicum [1]; transfer 4, Expt. 1): 38.7 nM
- Calculated Optimum Peptide Level (C. acetobutylicum [1]; transfer 7, Expt. 1): 37.3 nM
- Calculated Optimum Peptide Level (C. acetobutylicum [1]; transfer 7, Expt. 2): 100 nM
- Calculated Optimum Peptide Level (C. acetobutylicum [1]; transfer 10, Expt. 1): 56.6 nM
- Calculated Optimum Peptide Level (C. acetobutylicum [1]; transfer 10, Expt. 2): 35.6 nM
- Calculated Optimum Peptide Level (C. acetobutylicum [1]; transfer 13, Expt. 1): 40.4 nM
- Calculated Optimum Peptide Level (C. acetobutylicum [1]; transfer 13, Expt. 2): 28.6 nM
- Calculated Optimum Peptide Level (C. acetobutylicum [1]; transfer 16, Expt. 1): 51.2 nM
- Calculated Optimum Peptide Level (C. acetobutylicum [1]; transfer 16, Expt. 2): 26.8 nM
- Calculated Optimum Peptide Level (C. acetobutylicum [1]; transfer 19, Expt. 1): 52.5 nM
- Calculated Optimum Peptide Level (C. acetobutylicum [1]; transfer 19, Expt. 2): 28.3 nM
- Calculated Optimum Peptide Level (C. acetobutylicum [1]; transfer 22, Expt. 1): 62.9 nM
- Residual glucose (C. acetobutylicum [2]; 0 hours): 53.7 ± 0.9 g/L
- Butanol yield from glucose (C. acetobutylicum [2]; 0 hours): 0.001 g butanol/g glucose
- Residual glucose (C. acetobutylicum [2]; 6 hours): 56.2 ± 0.4 g/L
- Butanol yield from glucose (C. acetobutylicum [2]; 6 hours): 0.001 g butanol/g glucose
- Residual glucose (C. acetobutylicum [2]; 12 hours): 56.1 ± 0.7 g/L
- Butanol yield from glucose (C. acetobutylicum [2]; 12 hours): 0.001 g butanol/g glucose
- Residual glucose (C. acetobutylicum [2]; 18 hours): 54.7 ± 0.2^c g/L
- Butanol yield from glucose (C. acetobutylicum [2]; 18 hours): 0.002 g butanol/g glucose
- Residual glucose (C. acetobutylicum [2]; 21 hours): 52.0 ± 0.3 g/L
- Butanol yield from glucose (C. acetobutylicum [2]; 21 hours): 0.002 g butanol/g glucose
- Residual glucose (C. acetobutylicum [2]; 24 hours): 49.7 ± 0.5^c g/L
- Butanol yield from glucose (C. acetobutylicum [2]; 24 hours): 0.003 g butanol/g glucose
- Residual glucose (C. acetobutylicum [2]; 27 hours): 46.4 ± 0.4 g/L
- Butanol yield from glucose (C. acetobutylicum [2]; 27 hours): 0.007 g butanol/g glucose
- Residual glucose (C. acetobutylicum [2]; 30 hours): 46.6 ± 0.4 g/L
- Butanol yield from glucose (C. acetobutylicum [2]; 30 hours): 0.011 g butanol/g glucose
- Residual glucose (C. acetobutylicum [2]; 33 hours): 45.9 ± 0.6 g/L
- Butanol yield from glucose (C. acetobutylicum [2]; 33 hours): 0.032 g butanol/g glucose
- Residual glucose (C. acetobutylicum [2]; 36 hours): 46.2 ± 0.5 g/L
- Butanol yield from glucose (C. acetobutylicum [2]; 36 hours): 0.032 g butanol/g glucose
- Residual glucose (C. acetobutylicum [2]; 48 hours): 45.7 ± 0.3 g/L
- Butanol yield from glucose (C. acetobutylicum [2]; 48 hours): 0.033 g butanol/g glucose
- Residual glucose (C. acetobutylicum [2]; 72 hours): 45.8 ± 0.1 g/L
- Butanol yield from glucose (C. acetobutylicum [2]; 72 hours): 0.028 g butanol/g glucose
- Residual glucose (C. acetobutylicum [2]; 96 hours): 45.8 ± 0.2^c g/L
- Butanol yield from glucose (C. acetobutylicum [2]; 96 hours): 0.029 g butanol/g glucose
- Butanol productivity (C. acetobutylicum [2]; sampling interval ending at 6 hours): 0.000 g butanol/L-h
- Butanol productivity (C. acetobutylicum [2]; sampling interval ending at 12 hours): 0.000 g butanol/L-h
- Butanol productivity (C. acetobutylicum [2]; sampling interval ending at 18 hours): 0.010 g butanol/L-h
- Butanol productivity (C. acetobutylicum [2]; sampling interval ending at 21 hours): 0.004 g butanol/L-h
- Butanol productivity (C. acetobutylicum [2]; sampling interval ending at 24 hours): 0.024 g butanol/L-h
- Butanol productivity (C. acetobutylicum [2]; sampling interval ending at 27 hours): 0.074 g butanol/L-h
- Butanol productivity (C. acetobutylicum [2]; sampling interval ending at 30 hours): 0.069 g butanol/L-h
- Butanol productivity (C. acetobutylicum [2]; sampling interval ending at 33 hours): 0.377 g butanol/L-h
- Butanol productivity (C. acetobutylicum [2]; sampling interval ending at 36 hours): 0.002 g butanol/L-h
- Butanol productivity (C. acetobutylicum [2]; sampling interval ending at 48 hours): 0.002 g butanol/L-h
- Butanol productivity (C. acetobutylicum [2]; sampling interval ending at 72 hours): −0.011 g butanol/L-h
- Butanol productivity (C. acetobutylicum [2]; sampling interval ending at 96 hours): 0.002 g butanol/L-h
- Butanol concentration relative to untreated cultures (C. acetobutylicum [2]; 50 nM, 33 hours): more than double
- Yield of butanol relative to untreated cultures (C. acetobutylicum [2]; 50 nM, 33 hours): more than double
- Butanol yield increase compared to untreated culture (C. acetobutylicum [2]; 50 nM, end of the study (96 hours of growth)): 53%
- Butanol productivity relative to untreated cultures (C. acetobutylicum [2]; 50 nM, peak butanol formation stage (between 24 and 33 hours), listed as BP110517): nearly doubled; also recorded: more than doubled
- Increase in butanol yield (C. acetobutylicum [2]; BP110517, batch cultures (summary of findings)): more than 50%
- Butanol concentration (C. acetobutylicum [2]; 50 nM, 0 hours): 0.06 ± 0.00 g/L
- Butanol concentration (C. acetobutylicum [2]; 50 nM, 6 hours): 0.06 ± 0.00 g/L
- Butanol concentration (C. acetobutylicum [2]; 50 nM, 12 hours): 0.06 ± 0.00 g/L
- Butanol concentration (C. acetobutylicum [2]; 50 nM, 18 hours): 0.09 ± 0.00^c g/L
- Butanol concentration (C. acetobutylicum [2]; 50 nM, 21 hours): 0.10 ± 0.00 g/L
- Butanol concentration (C. acetobutylicum [2]; 50 nM, 24 hours): 0.17 ± 0.01^c g/L
- Butanol concentration (C. acetobutylicum [2]; 50 nM, 27 hours): 0.39 ± 0.03^c g/L
- Butanol concentration (C. acetobutylicum [2]; 50 nM, 30 hours): 0.60 ± 0.03^c g/L
- Butanol concentration (C. acetobutylicum [2]; 50 nM, 33 hours): 1.73 ± 0.27^c g/L
- Butanol concentration (C. acetobutylicum [2]; 50 nM, 36 hours): 1.74 ± 0.16 g/L
- Butanol concentration (C. acetobutylicum [2]; 50 nM, 48 hours): 1.76 ± 0.26^c g/L
- Butanol concentration (C. acetobutylicum [2]; 50 nM, 72 hours): 1.48 ± 0.29 g/L
- Butanol concentration (C. acetobutylicum [2]; 50 nM, 96 hours): 1.53 ± 0.29 g/L
